Results as given in patent publication US4570005A, “Process for the preparation of 2-arylpropyl ether or thioether derivatives” (priority 1980, dated 1986).

Key:
[1] = test system: tobacco cutworm; test: Test 1: Effect on Tobacco Cutworm (leaf immersion), mortality after 24 hours; format: in vivo; settings: second-instar larvae, 25° C
Description: (§1) To a mixture of 20 parts of the compound of the present invention and 20 parts of Sorpol SM-200 (registered tradename for the product supplied by Toho Chemical Industrial Co., Ltd.) was added 60 parts of xylol, and the mixture was suffciently blended. The obtained emulsifiable concentrate was diluted at a predetermined concentration with distilled water, and the obtained dilution was used.
An emulsifiable concentrate of a test compound prepared according to the method described in Formulation Example 1 was diluted to a concentration of 100 or 20 ppm. Sweet-potato leaves were immersed in the dilution for 10 seconds, air-dried and placed in a plastic cup having a diameter of 10 cm. Then second-instar larvae of tobacco cutworm were set free in the cup. The cup was allowed to stand still in a thermostat chamber maintained at 25° C. After 24 hours, the numbers of killed and living larvae were counted and the mortality was calculated. The obtained result was expressed by an average value obtained from the mortality calculated in three test cups.

[2] = test system: resistant green rice leafhopper (collected at Nakagawara); test: Test 3: Effect on Resistant Green Rice Leafhopper (collected at Nakagawara); format: in vivo, Nephotettix cincticeps Uhler (Green rice leafhopper); settings: Nephotettix cincticeps, 24 h, read-out: Mortality (%), Green Rice Leafhopper Collected at Nakagawara
Description: as §1
(§2) Seedlings (having 2 to 3 leaves) of paddy rice were hydroponically cultured in a pot having a diameter of 5 cm. A chemical dilution having a concentration of 100 or 20 ppm, prepared in the same manner as described in Test 1, was applied with a sprayer at a rate of 3 ml per pot. The treated seedlings were air-dried and covered with a metal net cylinder, and female adults of resistant green rice leafhopper (collected at Nakagawara) and sensitive green rice leafhopper (collected at Chigasaki) were set, respectively, free in the pot at a density of 10 adults per pot. After 24 hours, the numbers of killed and living adults were counted and the mortality was calculated. The test was made on three pots and the average value was calculated.

[3] = Test 9: Toxicity Test (acute oral toxicity, mice); settings: mouse, in vivo, po
Description: A predetermined amount of a solution or suspension of a test compound in corn oil was orally administered to male mice having a body weight of 19 to 23 g (0.2 ml per 10 g of the body weight). After 7 days, the number of killed mice was counted and the influences on the mice were examined.

[4] = test system: sensitive green rice leafhopper (collected at Chigasaki); test: whole plant or invertebrate; format: in vivo; settings: Nephotettix cincticeps, sensitive female adults, 24 hours, read-out: Mortality (%), Green Rice Leafhopper Collected at Chigasaki
Description: as §1, §2

[5] = test system: diamond back moth; test: Test 4: Effect on Diamond Back Moth; format: in vivo; settings: Plutella, third-instar larvae, 24 hours, read-out: Mortality (%)
Description: as §1
Cabbage leaves were spread in a plastic cup, and 10 third-instar larvae of diamond back moth were set free in the cup.
A chemical dilution having a concentration of 100 or 20 ppm, prepared in the same manner as described in Test 1, was applied from an applicator at a rate of 3 ml per cup.
After scattering of the chemical dilution, the cup was covered, and after 24 hours, the numbers of killed and living larvae were counted and the mortality was calculated. The test was made on three cups and the average value was calculated.

Row | Structure (SMILES) | mortality at 20 ppm [1] | mortality at 100 ppm [1] | mortality at 20 ppm [2] | mortality at 100 ppm [2] | LD50 at 168 h [3] | mortality at 20 ppm [4] | mortality at 100 ppm [4] | mortality at 20 ppm [5] | mortality at 100 ppm [5]
1 | CC(=O)c1ccc(C(C)(C)COCc2cccc(Oc3ccccc3)c2)cc1 [Compound 60, 3-Phenoxybenzyl 2-(4-acetylphenyl)-2-methylpropyl ether] | 80% | 100% | 90% | 100% | > 500 mg/kg | 60% | 100% | – | –
2 | Cc1ccc2cc(C(C)(C)COCc3cccc(Oc4ccccc4)c3)ccc2c1 [Compound 71, 3-Phenoxybenzyl 2-(6-methyl-2-naphthyl)-2-methylpropyl ether] | – | – | 100% | 100% | > 500 mg/kg | 100% | 100% | 60% | 100%
3 | CCOc1ccc(C(C)(C)COCc2cccc(Oc3ccccc3)c2)cc1OC [Compound 99, 3-Phenoxybenzyl-2-(4-ethoxy-3-methoxyphenyl)-2-methylpropyl ether] | 100% | 100% | – | – | > 500 mg/kg | – | – | 80% | 100%
4 | CCOC(C)c1ccc(C(C)(C)COCc2cccc(Oc3ccccc3)c2)cc1 (stereo not shown) [Compound 84, 3-Phenoxybenzyl 2-[4-(1-ethoxyethyl)phenyl]-2-methylpropyl ether] | – | – | – | – | > 500 mg/kg | – | – | 60% | 100%
5 | CCOc1c(C)cc(C(C)(C)COCc2cccc(Oc3ccccc3)c2)cc1C [Compound 97, 3-Phenoxybenzyl 2-(4-ethoxy-3,5-dimethylphenyl)-2-methylpropyl ether] | 100% | 100% | 100% | 100% | > 500 mg/kg | 100% | 100% | – | –
6 | CC(C)(COCc1cccc(Oc2ccccc2)c1)c1ccc(OCCCl)cc1 [Compound 108, 3-Phenoxybenzyl 2-[4-(2-chloroethoxy)phenyl]-2-methylpropyl ether] | 100% | 100% | 100% | 100% | > 500 mg/kg | 95% | 100% | – | –
7 | CC(C)(COCc1cccc(Oc2ccc(F)cc2)c1)c1ccc(F)c(Cl)c1 [Compound 58, 3-(4-Fluorophenoxy)benzyl 2-(3-chloro-4-fluorophenyl)-2-methylpropyl ether] | 100% | 100% | 100% | 100% | > 500 mg/kg | 100% | 100% | – | –
8 | CCC(C)Oc1ccc(C(C)(C)COCc2cccc(Oc3ccccc3)c2)cc1 (stereo not shown) [Compound 70, 3-Phenoxybenzyl 2-[4-(sec-butoxy)phenyl]-2-methylpropyl ether] | 90% | 100% | 100% | 100% | > 500 mg/kg | 100% | 100% | – | –
9 | CCOCOc1ccc(C(C)(C)COCc2cccc(Oc3ccccc3)c2)cc1 [Compound 81, 3-Phenoxybenzyl 2-(4-ethoxymethoxyphenyl)-2-methylpropyl ether] | 90% | 100% | – | – | > 500 mg/kg | – | – | – | –
10 | CCOC(=O)c1ccc(C(C)(C)COCc2cccc(Oc3ccccc3)c2)cc1 [Compound 85, 3-Phenoxybenzyl 2-(4-ethoxycarbonylphenyl)-2-methylpropyl ether] | 80% | 100% | 100% | 100% | > 500 mg/kg | 100% | 100% | – | –
11 | CCSc1ccc(C(C)(C)COCc2cccc(Oc3ccccc3)c2)cc1 [Compound 100, 3-Phenoxybenzyl 2-(4-ethylthiophenyl)-2-methylpropyl ether] | 80% | 100% | 95% | 100% | > 500 mg/kg | 80% | 100% | – | –
